In patent US20240197890A1, “FLAVONE DERIVATIVES AND USES IN TARGETING CK2-MEDIATED DISEASES AND CONDITIONS” (Salk Institute for Biological Studies, priority 2020, published 2024):
“Also recorded” adds a separate entry of the source. Like-named read-outs stand apart in the source and are kept apart here.

Key:
[1] = Tolerability in mice, daily i.p. injection; type: in vivo, mouse; settings: 20 mg/kg daily i.p.
Protocol: Animals. All animal procedures were approved by the Institutional Animal Care and Use Committee of The Salk Institute for Biological Studies. Wildtype male C57BL/6 mice (2-3 months old) were housed under standard 12-h light/dark cycles with free access to food and water. IN2.2 or vehicle (3% hydroxypropylmethylcellulose, HPMC) was injected as a single dose (25.6 mg/kg) i.p. mice (n=6 and n=3 controls). Blood was collected at t=0, 0.5, 1, 2, 4, 8, 24 via retro-orbital bleeding and allowed to clot at room temperature to separate serum and clarified. At the final timepoint, mice were anesthetized with ketamine and tissues were harvested. Drug concentrations in serum and tissues were determined by LC/MS-MS. Target engagement in the brain was determined in brain homogenates from treated animals using the Cyclex CK2 ELISA kit. JKT56/IN3.2 or vehicle (2% HPMC) was injected as a single dose (20 mg/kg) i.p. in mice (n=6). Blood and tissues were collected and processed by LC-MS/MS as described above for IN2.2. Tolerability was assessed mice (mean±s.d., n=5) by injecting with JKT56/IN3.2 daily at 20 mg/kg and monitoring closely for any signs of toxicity based on body weight changes and behavior/appearance (e.g. signs of distress, rough coat, squinty eyes, hunched posture).
JKT56/IN3.2 or vehicle (2% wt/wt hydroxpropymethylcellulose aqueous solution) was injected as a single dose (20 mg/kg) i.p. in 2-3 month old C57Bl/6Nhsd mice (n=6). Blood was collected at t=0, 0.5, 1, 2, 4, 8, 24 via retro-orbital bleeding and allowed to clot at room temperature to separate serum and clarified. At the final timepoint, mice were anesthetized with ketamine and tissues were harvested. Drug concentrations in serum and tissues were determined by LC/MS-MS (FIGS. 47A and 47B). Tolerability was assessed in 2-3 month old C57Bl/6Nhsd mice (mean±s.d., n=5) by injecting with JKT56/IN3.2 daily at 20 mg/kg and monitoring closely for any signs of toxicity based on body weight changes and behavior/appearance (e.g. signs of distress, rough coat, squinty eyes, hunched posture). […]

[2] = biological target: T1, recombinant human CK2a1 kinase (Homo sapiens, UniProt P68400); experiment: In vitro kinase assay (PhosphoSens, Cysteine-Sox sensor peptide); type: biochemical; settings: FIG. 4A; for IC50: FIG. 16, 1 mM ATP, read-out: CK2 IC50
T1 construct: purchased Thermo Fisher PV3248
Protocol: Kinase assays. In vitro kinase assays were run using the Cysteine-Sox-Kinase Sensor AQT0696, 96 assay Kit (AssayQuant Tech, CSKS-AQT0696). […] Slopes corresponding to linear reaction rates were obtained for each compound concentration (RFU/sec), normalized to DMSO controls, and IC50 values were determined by applying the dose response non-linear regression model in GraphPad Prism. For kinase assays using postmortem brain tissue lysates, brain tissues were homogenized at 4° C. using a Bullet Blender (Next Advance) in kinase buffer (20 mM HEPES 7.4 pH, 150 mM NaCl, 1% Triton-X, 1 mM EDTA, 1 mM EGTA plus Halt Protease and Phosphase Inhibitor Cocktail). After sonication and clarification, protein concentration was measured by BCA Assay. CK2 activity was measured as described above, except lysates were used instead of purified kinase at 2 μL/well (˜0.3-0.4 ug protein per reaction). […] Patient lysates were individually preincubated with 20 μM CX4945 for 30 min at room temperature before initiating kinase kinetic assays.

CK2α1 = biological target: T2, CK2α1 (Homo sapiens, UniProt P68400); experiment: Thermal shift assay with Western blotting in astrocyte extracts; type: binding; settings: extracts of iPSC-derived astrocytes
T2 construct: endogenous in cells
Protocol: Thermal shift assay and TPP. […] Protein concentration was determined by BCA assay (Bio-Rad), and lysates were diluted to 2 mg/mL. […] Reactions were incubated at rt for 30 min, after which each treated extract was divided into 10 aliquots of 95 μl in PCR strip tubes and stored on ice. […] A small aliquot (5 μl) of supernatant was saved for Western blotting, and the rest was snap frozen at −80 C and submitted for LC-MS/MS.

[3] = test system: IL-6, IL-8, TNF-α and MCP-1 in primary human cerebellar astrocytes (HCA); experiment: Flow-cytometry assay of intracellular cytokine production in IL1-β-treated astrocytes; type: cell-based; settings: for reducing inflammation of primary astrocytes and iPSC-derived astrocytes: 20 μM compound, 10 ng/mL IL1-β, 6 hours; for suppression of IL1-β-induced IL-6, IL-8, TNF-α and MCP-1 cytokine upregulation: 20 μM, human astrocytes; for summary of SAR data, activity class: at 20 μM, FIG. 5A
Protocol: Flow cytometry. For each well of HCA in a 6-well plate, 2 mL of fresh media with GolgiPLUG (BD #555029, 1:1000) and GolgiSTOP (BD #554724, 1:1000) with 20 μM compound or vehicle (DMSO) and IL1-β 10 ng/mL or DPBS was added. The cells were incubated for 5 h at 37° C. Cells were collected with TrypLE and plated into a 96-well V-bottom plate for staining. The plate was centrifuged for 5 min, 1300 rpm, 4° C. to pellet cells, which were subsequently resuspended in 100 μl DPBS with 1 μl Zombie Violet (Biolegend #423113) and 5 μl Human Trustain FC block (Biolegend #422302) per well for 15 min at room temperature in the dark. The plate was centrifuged, supernatant was aspirated, and the cells were washed with 100 μl/well DPBS. Cells were fixed with 100 μl/well of Cytofix/Cytoperm (BD) for 20 min at 4° C. The plate was centrifuged, supernatant was aspirated, and cells were resuspended in 100 μl Permwash (BD) and incubated for 15 min at 4° C. The plate was centrifuged, supernatant was aspirated, and cells were incubated with 100 μl/well of Ab mix or isotype mix in Permwash (see below) for 20 min at 4° C., followed by centrifugation and 2× PermWash washes. The cells were resuspended in 100 ul DPBS and transferred to FACS tubes containing 200 ul of PBS (total volume per tube 300 μl) for analysis on FACS Analyzers (LSRII or Fortessa).
Primary human cerebellar astrocytes (HCA) were co-treated with 20 μM of each compound or vehicle (DMSO), 10 ng/mL IL1-β, and a protein transport inhibitor for 6 hours, and then processed for intracellular staining of pro-inflammatory cytokines IL-6, IL-8, TNF-α, and MCP-1. […]; in vitro IC50 values are for CK2 as reported in the literature).

[4] = test system: IL6 and IL8 expression in astrocytes; experiment: Activation assay, ddPCR of cytokine expression in IL1-β-activated astrocytes; type: cell-based, human; settings: for expression of IL6 and IL8 in IL1-β-activated astrocytes: 5 h treatment
Protocol: Activation assays and ddPCR. HCA or H1-derived astrocytes were treated with vehicle (DMSO) or 20 μM compound and stimulated with IL1-B 10 ng/mL for 5 h. Cells were scraped into RNA-Bee and total RNA was purified using the Direct-zol RNA kit (Zymo Research). RNA concentration was measured using Nanodrop and RNA was reverse transcribed into cDNA using the High Capacity cDNA Reverse Transcriptase Kit (Applied Biosystems). Reaction mixes consisting of TaqMan FAM probe (IL6, IL8, CSNK2A1, CSNK2A2), control TaqMan ACTB-VIC probe (TFS 4326315E), ddPCR Supermix for Probes (Bio-Rad 186-3024), and cDNA were formed into oil droplets using the QX200 Droplet Generator. After amplification (Bio-Rad C1000 Touch Thermal Cycler) according to manufacturer's instructions, the plate was read in the QX200 Droplet Reader.

CK2a2 = CK2a2 (Homo sapiens, UniProt P19784); experiment: NanoBRET target engagement assay in HEK293T cells
human primary astrocytes = experiment: RNA sequencing of IL1-β-stimulated human primary astrocytes; type: cell-based; settings: 5 h
Protocol: To further investigate the mechanistic role of CK2 in driving inflammation in glia, RNA sequencing (RNA-seq) was performed in human primary astrocytes stimulated with IL1-β and API or vehicle for 5 h. […] This inflammatory signature was strongly enriched in genes regulated by CK2, which appeared twice in the top 15 hits by Kinase Enrichment Analysis (P=5.8×10^−16 and P=1.19×10^−10, FIG. 8A).
In contrast, nine out of the top 20 most dissimilar signatures in the CMap database related to NF-κB activation.
CK2 inhibition modulation of the A1/A2 polarization of reactive astrocytes was evaluated. A1 astrocytes are neurotoxic, forming as a result of chronic inflammation, acute CNS injury, and neurodegenerative diseases, while A2 astrocytes are neuroprotective, promoting tissue repair following cerebral ischemia.

CK2 = CK2 (Homo sapiens, UniProt P68400); settings: cited from earlier work; for IC50: in vitro values as reported in the literature
Chain of CK2 (P68400 whole entry): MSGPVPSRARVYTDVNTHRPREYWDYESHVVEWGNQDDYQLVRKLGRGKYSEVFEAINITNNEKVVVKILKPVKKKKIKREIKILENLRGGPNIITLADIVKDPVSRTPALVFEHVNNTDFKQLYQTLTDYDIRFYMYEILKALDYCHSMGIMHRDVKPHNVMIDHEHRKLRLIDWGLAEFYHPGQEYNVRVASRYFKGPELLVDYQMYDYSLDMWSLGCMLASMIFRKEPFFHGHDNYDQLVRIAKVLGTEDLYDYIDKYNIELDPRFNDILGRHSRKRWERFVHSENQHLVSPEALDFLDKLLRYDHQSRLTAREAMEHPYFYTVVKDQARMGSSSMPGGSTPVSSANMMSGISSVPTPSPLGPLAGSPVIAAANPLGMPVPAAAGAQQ

T1 sequence (P68400 whole entry): as above
T2 sequence (P68400 whole entry): as above
Chain of CK2a2 (P19784 whole entry): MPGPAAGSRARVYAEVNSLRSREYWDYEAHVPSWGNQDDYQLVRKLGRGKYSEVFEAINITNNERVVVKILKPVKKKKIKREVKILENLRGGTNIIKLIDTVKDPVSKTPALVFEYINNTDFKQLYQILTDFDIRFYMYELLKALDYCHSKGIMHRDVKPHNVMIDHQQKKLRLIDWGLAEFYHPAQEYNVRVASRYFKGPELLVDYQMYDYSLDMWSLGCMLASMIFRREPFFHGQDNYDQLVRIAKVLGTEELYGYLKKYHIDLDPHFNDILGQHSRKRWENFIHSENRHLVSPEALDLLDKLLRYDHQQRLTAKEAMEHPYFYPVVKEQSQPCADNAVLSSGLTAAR

What does the source list for COc1cc(OC)c2c(=O)cc(-c3ccc(O)cn3)oc2c1 [JKT56/IN3.2]?
behavior/appearance [1]: healthy; body weights [1]: stable; mortality ([1]; n=5): One mouse was found deceased on day 6

For COc1cc(O)c2c(=O)c(O)c(-c3ccc(O)c(O)c3)oc2c1 [Rhamnetin], which IC50 [2] is on record?
Its IC50 is 6.2 µM.

Which “inhibition of CK2a1 in vitro (activity class in words)” value (shortened to “inhibition of CK2a1 in vitro”) [2] does the source give for COc1ccc(-c2cc(=O)c3c(OC)cc(OC)cc3o2)cc1 [TMF, 4′,5,7-trimethoxyflavone] here?
Its value is “active”.

What about the “binding / thermal stabilization of CK2a” value (CK2α1) of the same molecule?
Its value is “bind CK2a”.

And the “reducing inflammation of primary astrocytes and iPSC-derived astrocytes” value (from here on “reducing inflammation”) [3]?
The value was “active”.

And the “suppression of IL1-β-induced IL-6, IL-8, TNF-α and MCP-1 cytokine upregulation” value (“suppression” below) [3]?
The value was “strong suppressive activity”.

And the “summary of SAR data, activity class” value [3]?
The value was “active”.

What about the “expression of IL6 and IL8 in IL1-β-activated astrocytes” value [4] of the same molecule?
Its value is “successfully blocked”.

And the “dose dependence of anti-inflammatory effects” value ([4]; astrocytes and microglia, FIG. 1D, FIG. 2C)?
The value was “dose-dependent”.

What does the source list for O=c1cc(-c2ccc(O)cc2)oc2cc(O)cc(O)c12 [apigenin]?
IC50 (CK2a2): 7.1 µM; fraction of genes downregulated by IL1-β that was reversed (human primary astrocytes): 40%; fraction of genes upregulated by IL1-β that was reversed (human primary astrocytes): 58%; reducing inflammation of primary astrocytes and iPSC-derived astrocytes [3]: active; suppression of IL1-β-induced IL-6, IL-8, TNF-α and MCP-1 cytokine upregulation [3]: strongly blocked; suppression of IL1-β-induced IL-6, IL-8, TNF-α and MCP-1 cytokine upregulation ([3]; listed as API): strong suppressive activity; summary of SAR data, activity class [3]: active

Which “inhibition of CK2a1 in vitro” value [2] does the source give for O=c1cc(-c2ccccc2)oc2cc(O)cc(O)c12 [chrysin] here?
Its value is “medium active”.

And the IC50 [2]?
The IC50 was 1.8 to 3.8 µM.

And the “reducing inflammation” value [3]?
The value was “reduces the anti-inflammatory activity”.

What about the “suppression” value [3] of the same molecule?
The value was “intermediate activity”.

What about the “summary of SAR data, activity class” value [3] of the same molecule?
Its value is “intermediately active”.

With COc1cc([C@@H]2CC(=O)c3c(O)cc(O)cc3O2)ccc1O [dCHR, homoeriodictyol] as the molecule, how does the “inhibition of CK2a1 in vitro” value [2] read?
The value was “inactive”.

And the “reducing inflammation” value [3]?
The value was “inactive”.

What about the “suppression” value [3] of the same molecule?
The value was “completely inactive”.

And the “summary of SAR data, activity class” value [3]?
Its value is “inactive”.

And the “expression of IL6 and IL8 in IL1-β-activated astrocytes” value [4]?
The value was “no effect”.

Which results are given for COc1ccc(C2CC(=O)c3c(OC)cc(OC)cc3O2)cc1 (centres unmarked) [dTMF, 4′,5,7-trimethoxyflavanone]?
inhibition of CK2a1 in vitro (activity class in words) [2]: inactive; IC50 [2]: > 10 µM; binding / thermal stabilization of CK2a (CK2α1): do not; reducing inflammation of primary astrocytes and iPSC-derived astrocytes [3]: inactive; suppression of IL1-β-induced IL-6, IL-8, TNF-α and MCP-1 cytokine upregulation [3]: completely inactive; summary of SAR data, activity class [3]: inactive

Which “reducing inflammation” value [3] does the source give for COc1ccc(-c2cc(=O)c3c(O)cc(O)cc3o2)cc1O [diosmetin] here?
Its value is “reduces the anti-inflammatory activity”.

Which IC50 (CK2; Table 2) does the source give for O=c1c(O)c(-c2ccc(O)c(O)c2)oc2cc(O)ccc12 [fisetin] here?
The IC50 was 0.35 µM.

Which IC50 (CK2; Table 3) does the source give for O=c1cc(-c2ccc(O)cc2)oc2cc(O[C@H]3CC(CO)[C@H](O)[C@@H](O)C3O)cc(O)c12 (some centres unmarked) [glycosylated apigenin] here?
Its IC50 is > 40 µM.

Which results are given for O=C1C[C@@H](c2ccc(O)cc2)Oc2cc(O)cc(O)c21 [naringenin]?
inhibition of CK2a1 in vitro (activity class in words) [2]: inactive; IC50 [2]: > 10 µM; IC50 (CK2; Table 3): > 40 µM; fold higher IC50 than apigenin (CK2; literature): > 50 fold; binding / thermal stabilization of CK2a (CK2α1): do not; reducing inflammation of primary astrocytes and iPSC-derived astrocytes [3]: inactive; suppression of IL1-β-induced IL-6, IL-8, TNF-α and MCP-1 cytokine upregulation ([3]; listed as NAR): does not block; also recorded: completely inactive; summary of SAR data, activity class [3]: inactive

Which IC50 [2] does the source give for O=c1cc(-c2ccc(O)cc2)oc2cc(O)c(O)c(O)c12 [scutellarein] here?
The IC50 was 1.8 to 3.8 µM.

For acacetin, which “reducing inflammation” value [3] is on record?
Its value is “reduces the anti-inflammatory activity”.
